Test results reported in US20020091265A1, “4-phenyl-pyridine derivatives” (priority 1999, published 2002).
Structures can show the parent of a compound that is named as a salt.

Tests used:
[1] = test system: over 50 other binding sites; assay: Selectivity for NK1 compared to over 50 other binding sites
[2] = test system: motion sickness in the suncus murinus; assay: Model of motion sickness in suncus murinus; type: in vivo; settings: po
NK2 receptors = biological target: T1, NK2 receptors (Homo sapiens, UniProt P21452); assay: Selectivity for NK1 compared to NK2 receptors; type: binding
T1 sequence (P21452 1-398): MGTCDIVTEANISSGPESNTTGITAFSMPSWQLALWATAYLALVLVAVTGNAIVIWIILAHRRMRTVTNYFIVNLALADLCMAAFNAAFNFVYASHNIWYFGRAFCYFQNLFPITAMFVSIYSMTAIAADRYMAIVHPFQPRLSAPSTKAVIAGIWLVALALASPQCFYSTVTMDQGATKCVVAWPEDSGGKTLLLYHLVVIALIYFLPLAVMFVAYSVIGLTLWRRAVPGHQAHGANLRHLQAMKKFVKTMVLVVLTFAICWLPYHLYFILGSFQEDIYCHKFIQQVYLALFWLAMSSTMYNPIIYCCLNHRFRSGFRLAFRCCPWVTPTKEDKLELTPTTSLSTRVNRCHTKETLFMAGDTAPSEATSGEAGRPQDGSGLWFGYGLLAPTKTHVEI

human NK1 receptor [3] = biological target: T2, human NK1 receptor (Homo sapiens, UniProt P25103); assay: [3H]substance P binding at human NK1 receptors in CHO cells; settings: [3H]substance P 0.6 nM, 60 min room temperature, read-out: affinity (pKi) for the human NK1 receptor (converted)
T2 sequence (P25103 whole entry): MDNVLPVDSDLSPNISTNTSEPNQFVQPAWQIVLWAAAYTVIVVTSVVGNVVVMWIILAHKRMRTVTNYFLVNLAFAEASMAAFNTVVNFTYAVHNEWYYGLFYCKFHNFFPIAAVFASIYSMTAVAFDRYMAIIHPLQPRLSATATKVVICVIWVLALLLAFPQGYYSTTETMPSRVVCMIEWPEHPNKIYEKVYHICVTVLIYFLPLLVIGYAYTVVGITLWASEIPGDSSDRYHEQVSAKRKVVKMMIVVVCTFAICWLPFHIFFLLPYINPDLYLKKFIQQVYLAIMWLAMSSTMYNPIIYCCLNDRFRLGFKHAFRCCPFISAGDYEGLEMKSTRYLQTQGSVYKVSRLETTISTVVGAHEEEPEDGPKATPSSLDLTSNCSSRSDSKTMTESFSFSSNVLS
Experimental: All assays were performed in triplicate in at least2 separate experiments.

human NK1 receptor [4] = biological target: T2, human NK1 receptor; assay: Substance P induced Ca2+ influx in CHO cells (FLIPR); type: cell-based; design: expressed in transfected cells; host or cells: CHO cells; settings: for effect on substance P induced Ca2+ influxes: CHO cells expressing recombinant human NK1 receptor, FLIPR; for type of antagonism at human recombinant NK1 receptors: from Ca2+ influx data
Source text: (§1) The activity in vitro of the compound of formula 1a was examined by studying its effect on substance P induced Ca^2+ influxes in CHO cells expressing the recombinant human NK1 receptor. In these cells, substance P causes a concentration dependent influx of Ca^2+ which can be measured using FLIPR technology.
The activity of 2-(3,5-bis-trifluoromethyl-phenyl)-N-methyl-N-[^6-(^4-methyl-piperazin-1-yl)-4-o-tolyl-pyridin-3-yl]-isobutyramide in vitro was examined by studying its effect on substance P induced Ca^2+influxes in CHO cells expressing the recombinant human NK1 receptor. In these cells, substance P causes a concentration dependent influx of Ca^2+ which can be measured using FLIPR technology.
as §1, with “activity” for “activity in vitro”, “Ic in vitro” for “1a”

[5] = test system: foot-tapping behaviour induced in gerbils with an NK1 receptor agonist; assay: Foot-tapping behaviour induced by i.c.v. NK1 receptor agonist; type: in vivo, gerbil; settings: for dose calculated to inhibit 50% of the foot-tapping behaviour: oral administration
Experimental: (§2) In vivo the compound of formula Ia antagonises foot-tapping behaviour induced in gerbils with intracerebroventricular (i.c.v.) injections of an NK1 receptor agonist. The dose for this compound calculated to inhibit 50% of the foot-tapping behaviour following oral administration was 0.2 mg/kg.
as §2, with “2-(3,5-bis-trifluoromethyl-phenyl)-N-methyl-N-[6-(4-methyl-piperazin-1-yl)-4-o-tolyl-pyridin-3-yl]-isobutyramide” for “the compound of formula Ia”, “Gerbils” for “gerbils”, “of” for “for”, “0.5” for “0.2”
In vivo the compound of formula Ic antagonises foot-tapping behaviour induced in Gerbils with intracerebroventricular (i.c.v.) injections of an NK1 receptor agonist. The dose of this compound calculated to inhibit 50% of the foot-tapping behaviour following oral administration was 1.5 mg/kg.

[6] = test system: emesis induced in ferrets by emetogens; assay: Antiemetic test in ferrets; type: in vivo, ferret; settings: for emesis induced by all emetogens (apomorphine, morphine, ipecacuanha, cisplatin, CuSO4): 0.3 mg/kg p.o., 2 hours before the emetogen
Experimental: The compound of formula 1a, 2-(3,5-Bis-trifluoromethyl-phenyl)-N-methyl-N-(6-morpholin-4-yl-4-o-tolyl-pyridin-3-yl)-isobutyramide, was also tested as an antiemetic agent in ferrets.
2-(3,5-bis-trifluoromethyl-phenyl)-N-methyl-N-[6-(4-methyl-piperazin-1-yl)-4-o-tolyl-pyridin-3-yl]-isobutyramide was also tested as an antiemetic agent in Ferrets.

NK3 receptors = biological target: T3, NK3 receptors (Homo sapiens, UniProt P29371); assay: Selectivity for NK1 compared to NK3 receptors; type: binding
T3 sequence (P29371 1-465): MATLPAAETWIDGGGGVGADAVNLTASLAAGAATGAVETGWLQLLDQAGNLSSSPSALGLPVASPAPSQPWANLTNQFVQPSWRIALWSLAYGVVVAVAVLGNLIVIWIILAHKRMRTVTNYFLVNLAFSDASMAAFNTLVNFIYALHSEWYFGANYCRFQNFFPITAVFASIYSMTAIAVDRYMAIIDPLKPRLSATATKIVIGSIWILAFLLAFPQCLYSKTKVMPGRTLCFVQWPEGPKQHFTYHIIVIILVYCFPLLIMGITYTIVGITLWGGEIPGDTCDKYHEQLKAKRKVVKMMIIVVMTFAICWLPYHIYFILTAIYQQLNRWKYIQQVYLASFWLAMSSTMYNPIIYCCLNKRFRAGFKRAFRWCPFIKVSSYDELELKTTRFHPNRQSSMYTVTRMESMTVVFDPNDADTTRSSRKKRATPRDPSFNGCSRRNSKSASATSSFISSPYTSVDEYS

in vivo = settings: dog; for bioavailability: po
Source text: The pharmacokinetic parameters have been evaluated in both rats and dogs.

[7] = Pharmacokinetic parameters in rats; settings: rat, in vivo; for bioavailability: po; for half-life: read-out: terminal half-life (converted); for Vd: read-out: volume of distribution

Cc1ccccc1-c1cc(N2CCN(C)CC2)ncc1N(C)C(=O)C(C)(C)c1cc(C(F)(F)F)cc(C(F)(F)F)c1 [Ib, 2-(3,5-bis-trifluoromethyl-phenyl)-N-methyl-N-[6-(4-methyl-piperazin-1-yl)-4-o-tolyl-pyridin-3-yl]-isobutyramide]
selectivity for the NK1 receptor compared to over 50 other binding sites [1]: over 2 orders of magnitude | ED50 [2]: 0.2 mg/kg | selectivity for the NK1 receptor compared to NK2 receptors (NK2 receptors): over 2 orders of magnitude | Ki (human NK1 receptor [3]): 1 nM | effect on substance P induced Ca2+ influxes (human NK1 receptor [4]): inhibited this effect in a concentration dependent manner | type of antagonism at human recombinant NK1 receptors (human NK1 receptor [4]): competitive antagonist | total plasma concentration required to completely block the foot-tapping behaviour [5]: 30 ng/mL | dose calculated to inhibit 50% of the foot-tapping behaviour [5]: 0.5 mg/kg | emesis induced by all emetogens (apomorphine, morphine, ipecacuanha, cisplatin, CuSO4) [6]: completely blocked | ED50 ([6]; Mustela putorius, po, read-out: ED50 against apomorphine-induced emesis): 0.1 mg/kg | selectivity for the NK1 receptor compared to NK3 receptors (NK3 receptors): over 2 orders of magnitude | Vd (in vivo): 15 L/kg | clearance (in vivo): 9.2 mL/min/kg | half-life (in vivo): 18 h | bioavailability (in vivo): 75% | clearance [7]: 3.7 mL/min/kg | bioavailability [7]: 45% | half-life [7]: 24 h | Vd [7]: 5.7 L/kg

Cc1ccccc1-c1cc(N2CCN(Cc3n[nH]c(=O)[nH]3)CC2)ncc1C(=O)N(C)Cc1cc(C(F)(F)F)cc(C(F)(F)F)c1 [Example 58, N-(3,5-Bis-trifluoromethyl-benzyl)-N-methyl-6-[4-(5-oxo-4,5-dihydro-1H-[1,2,4]triazol-3-ylmethyl)-piperazin-1-yl]-4-o-tolyl-nicotinamide]
Ki (human NK1 receptor [3]): 0.288 nM

Cc1ccccc1-c1ccncc1N(C)C(=O)C(C)(C)c1cc(C(F)(F)F)cc(C(F)(F)F)c1 [Example 18, 2-(3,5-Bis-trifluoromethyl-phenyl)-N-methyl-N-(4-o-tolyl-pyridin-3-yl)-isobutyramide Hydrochloride (1:1)]
Ki (human NK1 receptor [3]): 3.39 nM

Cc1ccccc1-c1cc(N(C)C)ncc1N(C)C(=O)C(C)(C)c1cc(C(F)(F)F)cc(C(F)(F)F)c1 (as salt: hydrochloride) [Example 29, 2-(3,5-Bis-trifluoromethyl-phenyl)-N-(6-dimethylamino-4-o-tolyl-pyridin-3-yl)-N-methyl-isobutyramide]
melting point: 174 to 175 °C

CN(C(=O)C(C)(C)c1cc(C(F)(F)F)cc(C(F)(F)F)c1)c1cnccc1-c1ccccc1Cl (as salt: hydrochloride) [Ic, 2-(3,5-Bis-trifluoromethyl-phenyl)-N-[4-(2-chloro-phenyl)-pyridin-3-yl]-N-methyl-isobutyramide]
melting point: 186 to 188 °C

Cc1ccccc1-c1cc(N2CCOCC2)ncc1N(C)C(=O)C(C)(C)c1cc(C(F)(F)F)cc(C(F)(F)F)c1 (as salt: hydrochloride) [Ia, 2-(3,5-bis-trifluoromethyl-phenyl)-N-methyl-N-(6-morpholin-4-yl-4-o-tolyl-pyridin-3-yl)-isobutyramide]
melting point: 73.5 to 76 °C

Cc1ccccc1-c1cc(N2CCNCC2)ncc1N(C)C(=O)C(C)(C)c1cc(C(F)(F)F)cc(C(F)(F)F)c1 [Example 31, 2-(3,5-Bis-trifluoromethyl-phenyl)-N-methyl-N-(6-piperazin-1-yl-4-o-tolyl-pyridin-3-yl)-isobutyramide]
Ki (human NK1 receptor [3]): 1 nM

CC(C)c1cc(Cl)ncc1C(=O)NC(C)(C)C [Example 83, N-tert-Butyl-6-chloro-4-(prop-2-yl)-nicotinamide]
melting point: 130 to 140 °C (dec.)

CC(C)(C)NC(=O)c1cnc(Cl)cc1-c1ccc(F)cc1 [Example 84, N-tert.-Butyl-6-chloro-4-p-fluoro-phenyl-nicotinamide]
melting point: 168 to 173 °C

Cc1ccccc1-c1cc(N2CCOCC2)ncc1N(C)C(=O)C(C)(C)c1cc(C(F)(F)F)cc(C(F)(F)F)c1 [Ia, 2-(3,5-bis-trifluoromethyl-phenyl)-N-methyl-N-(6-morpholin-4-yl-4-o-tolyl-pyridin-3-yl)-isobutyramide]
selectivity for the NK1 receptor compared to over 50 other binding sites [1]: over 2 orders of magnitude | selectivity for the NK1 receptor compared to NK2 receptors (NK2 receptors): over 2 orders of magnitude | Ki (human NK1 receptor [3]): 1 nM | effect on substance P induced Ca2+ influxes (human NK1 receptor [4]): rightward shift in the concentration effect curve of substance P | type of antagonism at human recombinant NK1 receptors (human NK1 receptor [4]): competitive antagonist | slope of the Schild regression (human NK1 receptor [4]; substance P induced Ca2+ influx, CHO cells): 1.1 | dose calculated to inhibit 50% of the foot-tapping behaviour [5]: 0.2 mg/kg | emesis induced by all emetogens (apomorphine, morphine, ipecacuanha, cisplatin, CuSO4) [6]: completely blocked | selectivity for the NK1 receptor compared to NK3 receptors (NK3 receptors): over 2 orders of magnitude | Vd (in vivo): 22 L/kg | clearance (in vivo): 16 mL/min/kg | half-life (in vivo): 40 h | bioavailability (in vivo): 30 to 40% | clearance [7]: 4 mL/min/kg | bioavailability [7]: 50% | half-life [7]: 23 h | Vd [7]: 8 L/kg

CN(C(=O)C(C)(C)c1cc(C(F)(F)F)cc(C(F)(F)F)c1)c1cnccc1-c1ccccc1Cl [Ic, 2-(3,5-Bis-trifluoromethyl-phenyl)-N-[4-(2-chloro-phenyl)-pyridin-3-yl]-N-methyl-isobutyramide]
selectivity for the NK1 receptor compared to over 50 other binding sites [1]: over 2 orders of magnitude | selectivity for the NK1 receptor compared to NK2 receptors (NK2 receptors): over 2 orders of magnitude | Ki (human NK1 receptor [3]): 2.51 nM | effect on substance P induced Ca2+ influxes (human NK1 receptor [4]): inhibited this effect in a concentration dependent manner | type of antagonism at human recombinant NK1 receptors (human NK1 receptor [4]): competitive antagonist | total plasma concentration required to completely block the foot-tapping behaviour [5]: 100 ng/mL | dose calculated to inhibit 50% of the foot-tapping behaviour [5]: 1.5 mg/kg | selectivity for the NK1 receptor compared to NK3 receptors (NK3 receptors): over 2 orders of magnitude | Vd (in vivo): 4.5 L/kg | clearance (in vivo): 30 mL/min/kg | half-life (in vivo): 3.5 h | bioavailability (in vivo): 16% | clearance [7]: 45 mL/min/kg | bioavailability [7]: ~30% | half-life [7]: 11 h | Vd [7]: 2.6 L/kg

Cc1ccccc1-c1cc(N(C)CCN2CCOCC2)ncc1N(C)C(=O)C(C)(C)c1cc(C(F)(F)F)cc(C(F)(F)F)c1 [Example 25, 2-(3,5-Bis-trifluoromethyl-phenyl)-N-methyl-N-{6-[methyl-(2-morpholin-4-yl-ethyl)-amino]-4-o-tolyl-pyridin-3-yl}-isobutyramide]
Ki (human NK1 receptor [3]): 2 nM
